According to patent US5630978A, “Preparation of biologically active molecules by molecular imprinting” (Yissum Research Development Co. of The Hebrew University of …, priority 1995, dated 1997):

Test system: extracellular matrix (ECM) bound FGF
Test: Release of extracellular matrix (ECM) bound FGF
Type: biochemical
Procedure: The polymers were tested according to the method of Vlodavsky [Vlodavsky, I., Bar-Shavit, R., Korner, G., and Foks, Z., Extracellular matrix-bound growth factors, enzymes, and plasma proteins, in Molecular and cellular aspects of basement membrane, Academic Press, 327-343 (1993)]. Release of ECM bound bFGF was low (15%) at the concentration range between 1 and 25 mg/ml for N-acryl-4-hydroxyproline based polymers. Under the same conditions, heparin released about 80% of the ECM bound bFGF at a concentration of 2 to 25 mg/ml.

heparin
released extracellular matrix (ECM) bound FGF: 80% | Release of ECM bound bFGF (concentration of 2 to 25 mg/ml): about 80%
